From publication PMC3761967 (Bioorganic & medicinal chemistry, 2012)
Where no end group is shown, it is not given here. The star is where a group is joined. Dansyl = CN(C)c1cccc2c(S(=O)(=O)*)cccc12

How the values were obtained:
recombinant human FTase = conditions: cited from earlier work
[1] = system: Ras processing in ras-transformed NIH3T3; conditions: cited from earlier work
tobacco BY-2 cells = conditions: cited from earlier work
rubber transferase = rubber transferase from Hevea Brasiliensis; cited from earlier work
[2] = system: PBP1b (penicillin-binding protein 1b); conditions: cited from earlier work
Ras/ERK1/2 pathway = conditions: rats; cited from earlier work
[3] = system: membrane-bound Ha-Ras / Ki-Ras; conditions: cited from earlier work
Ha-Ras = conditions: murine ischemic stroke model; cited from earlier work
[4] = mild basic conditions (pH=7.5), hydrolysed to dicarboxylate anion 2; ref 10a; cited from earlier work
yeast FTase = molecular target: T1, yeast FTase (Saccharomyces cerevisiae, UniProt P22007+P29703); test: Yeast FTase continuous fluorescence assay; format: biochemical; conditions: yeast FTase IC50, 27 vs 2
T1 sequence (P29703 1-316): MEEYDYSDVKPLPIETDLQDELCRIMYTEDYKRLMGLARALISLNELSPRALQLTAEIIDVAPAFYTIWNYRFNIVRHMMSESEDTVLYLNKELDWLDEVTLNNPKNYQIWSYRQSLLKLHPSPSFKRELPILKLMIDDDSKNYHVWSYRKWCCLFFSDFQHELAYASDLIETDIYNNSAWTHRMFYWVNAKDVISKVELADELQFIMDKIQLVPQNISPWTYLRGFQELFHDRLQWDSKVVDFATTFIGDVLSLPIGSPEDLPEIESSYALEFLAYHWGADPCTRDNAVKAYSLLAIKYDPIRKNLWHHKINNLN
T1 sequence (P22007 1-431): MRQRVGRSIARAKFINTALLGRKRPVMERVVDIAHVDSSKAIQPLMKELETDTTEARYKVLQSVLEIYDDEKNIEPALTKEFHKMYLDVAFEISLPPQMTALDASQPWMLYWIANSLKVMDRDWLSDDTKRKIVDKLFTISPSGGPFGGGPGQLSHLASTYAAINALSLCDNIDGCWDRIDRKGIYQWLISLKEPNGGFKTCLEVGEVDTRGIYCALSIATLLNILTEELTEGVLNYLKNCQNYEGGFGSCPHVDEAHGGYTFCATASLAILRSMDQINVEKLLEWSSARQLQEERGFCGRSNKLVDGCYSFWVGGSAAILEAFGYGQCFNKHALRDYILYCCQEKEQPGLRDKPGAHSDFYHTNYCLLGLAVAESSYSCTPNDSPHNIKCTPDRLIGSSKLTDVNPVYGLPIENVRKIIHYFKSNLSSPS

wild FTase = conditions: peptide substrate; cited from earlier work

In the case of `CCCCCCCCCCCCCC/C(C(=O)O)=C(\C)C(=O)O` [compound 1, chaetomellic acid A], the “Mode of FTase inhibition towards the acceptor peptide Ras” value (recombinant human FTase; diacid anion of 1) is listed as “noncompetitive”, the “Mode of FTase inhibition with respect to farnesyl pyrophosphate (FPP)” value (recombinant human FTase; diacid anion of 1) is listed as “highly competitive” and the “Inhibition of Ras processing” value [1] is listed as “did not inhibit”. For the same compound, the “Effect on cell cycle progression” value (tobacco BY-2 cells) was “specific arrest in the cell cycle”, the “Inhibition of rubber biosynthesis in vitro” value (rubber transferase) was “able to inhibit” and the “Reduction of PBP1b activity” value [2] was “modest potency”. For the same compound, the “Effect on acute ischemia-reperfusion injury (renal function and histology)” value (Ras/ERK1/2 pathway) was “beneficial effect”, the “Effect on membrane-bound Ha-Ras” value [3] was “selectively inhibited” and the “Effect on membrane-bound Ki-Ras” value [3] was “did not alter”. For the same compound, the “Production of superoxide anion and volume of cerebral necrotic tissue” value (Ha-Ras) was “significantly reducing”.
For `CCCCCCCCCCCCCC/C(C(=O)O)=C(\C)C(=O)O` [compound 2], the IC50 (recombinant human FTase; read-out: IC50 recombinant human FTase, dianionic form) is listed as 55 nM.
For `CCCCCCCCCCCCCCC1=C(C)C(=O)OC1=O` [compound 3, chaetomellic anhydride A], the “Stability of the cyclic (anhydride) form” value [4] is given as “unstable”.
In the case of `CCCCSCCCCCCCCC/C(C(=O)[O-])=C(\C)C(=O)[O-].[Na+].[Na+]` [compound 27, disodium salt of 2-(9-(butylthio)nonyl)-3-methylmaleic acid], the “times more potent than ACA” value (yeast FTase) is reported as “approximately 5”.
In the case of “dansyl-Gly-Cys-Val-Ile-Ala (Dansyl-GCVIA)”, the kcat (wild FTase) is given as greater than 0.2 s⁻¹.
For “dansyl-Gly-Cys-Val-Leu-Ser (Dansyl-GCVLS)”, the kcat (wild FTase) is listed as 0.4 s⁻¹.
